This passage reports Ki results from BindingDB's records for PubMed 1325033 (Universit&Acute, 1992).

Where “and” joins values, the source holds several entries; their conditions need not be identical. Equal entries are not always repeated. Peptide text beside a SMILES is read from it.

The target in this test is T1, Pituitary adenylate cyclase-activating polypeptide (Rattus norvegicus, UniProt P13589).
T1 sequence (P13589 whole entry): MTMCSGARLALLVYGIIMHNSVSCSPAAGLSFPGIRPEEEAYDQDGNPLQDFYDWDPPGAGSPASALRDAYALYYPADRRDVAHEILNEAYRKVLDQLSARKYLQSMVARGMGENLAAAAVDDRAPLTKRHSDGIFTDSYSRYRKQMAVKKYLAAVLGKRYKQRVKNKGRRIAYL

“H-FTDSYSRYRKQMAVKKYLAAVL-NH2 [PACAP(5-27)]”: the Ki is 300 nM and 2000 nM.
In the case of “H-SNGIFTDSYSRYRKQMAVKKYLAAVL-NH2 [[Des-His1,Asn3]PACAP-27]”, the Ki is 1500 nM and 5000 nM.
In the case of `CCC(C)[C@H](NC(=O)CN)C(=O)N[C@@H](Cc1ccccc1)C(=O)N[C@H](C(=O)N[C@@H](CC(=O)O)C(=O)N[C@@H](CO)C(=O)N[C@@H](Cc1ccc(O)cc1)C(=O)N[C@@H](CO)C(=O)N[C@@H](CCCN=C(N)N)C(=O)N[C@@H](Cc1ccc(O)cc1)C(=O)N[C@@H](CCCN=C(N)N)C(=O)N[C@@H](CCCCN)C(=O)N[C@@H](CCC(N)=O)C(=O)N[C@@H](CCSC)C(=O)N[C@@H](C)C(=O)N[C@H](C(=O)N[C@@H](CCCCN)C(=O)N[C@@H](CCCCN)C(=O)N[C@@H](Cc1ccc(O)cc1)C(=O)N[C@@H](CC(C)C)C(=O)N[C@@H](C)C(=O)N[C@@H](C)C(=O)N[C@H](C(=O)N[C@@H](CC(C)C)C(=O)NCC(=O)N[C@@H](CCCCN)C(=O)N[C@@H](CCCN=C(N)N)C(=O)N[C@@H](Cc1ccc(O)cc1)C(=O)N[C@@H](CCCCN)C(=O)N[C@@H](CCC(N)=O)C(=O)N[C@@H](CCCN=C(N)N)C(=O)N[C@H](C(=O)N[C@@H](CCCCN)C(=O)N[C@@H](CC(N)=O)C(=O)N[C@@H](CCCCN)C(N)=O)C(C)C)C(C)C)C(C)C)[C@@H](C)O` (some centres not stated) [PACAP(4-38)] (HELM PEPTIDE1{G.[CCC(C)[C@H](N[*:1])C(=O)[*:2]].F.T.D.S.Y.S.R.Y.R.K.Q.M.A.V.K.K.Y.L.A.A.V.L.G.K.R.Y.K.Q.R.V.K.N.K.[am]}$$$$V2.0), the affinity, expressed as Ki, was 300 nM.
Consider `CCC(C)[C@H](NC(=O)CNC(=O)[C@H](CC(=O)O)NC(=O)[C@@H](Cc1ccccc1)NC(=O)[C@@H](N)Cc1cnc[nH]1)C(=O)N[C@@H](Cc1ccccc1)C(=O)N[C@H](C(=O)N[C@@H](CC(=O)O)C(=O)N[C@@H](CO)C(=O)N[C@@H](Cc1ccc(O)cc1)C(=O)N[C@@H](CO)C(=O)N[C@@H](CCCN=C(N)N)C(=O)N[C@@H](Cc1ccc(O)cc1)C(=O)N[C@@H](CCCN=C(N)N)C(=O)N[C@@H](CCCCN)C(=O)N[C@@H](CCC(N)=O)C(=O)N[C@@H](CCSC)C(=O)N[C@@H](C)C(=O)N[C@H](C(=O)N[C@@H](CCCCN)C(=O)N[C@@H](CCCCN)C(=O)N[C@@H](Cc1ccc(O)cc1)C(=O)N[C@@H](CC(C)C)C(=O)N[C@@H](C)C(=O)N[C@@H](C)C(=O)N[C@H](C(=O)N[C@@H](CC(C)C)C(N)=O)C(C)C)C(C)C)[C@@H](C)O` (stereo partly drawn) [[D-Phe2]PACAP-27], for which the Ki is 350 nM and 1000 nM.
To “H-TDSYSRYRKQMAVKKYLAAVL-NH2 [PACAP(6-27)]” belongs 4000 nM and > 10000 nM.
Consider “H-TDSYSRYRKQMAVKKYLAAVLGKRYKQRVKNK-NH2 [PACAP(7-38)]”, for which the Ki was 25 nM and 150 nM.
To `CCC(C)[C@H](NC(=O)CNC(=O)[C@H](CC(=O)O)NC(=O)[C@@H](Cc1ccccc1)NC(=O)[C@@H](N)Cc1cnc[nH]1)C(=O)N[C@@H](Cc1ccccc1)C(=O)N[C@H](C(=O)N[C@@H](CC(=O)O)C(=O)N[C@@H](CO)C(=O)N[C@@H](Cc1ccc(O)cc1)C(=O)N[C@@H](CO)C(=O)N[C@@H](CCCN=C(N)N)C(=O)N[C@@H](Cc1ccc(O)cc1)C(=O)N[C@@H](CCCN=C(N)N)C(=O)N[C@@H](CCCCN)C(=O)N[C@@H](CCC(N)=O)C(=O)N[C@@H](CCSC)C(=O)N[C@@H](C)C(=O)N[C@H](C(=O)N[C@@H](CCCCN)C(=O)N[C@@H](CCCCN)C(=O)N[C@@H](Cc1ccc(O)cc1)C(=O)N[C@@H](CC(C)C)C(=O)N[C@@H](C)C(=O)N[C@@H](C)C(=O)N[C@H](C(=O)N[C@@H](CC(C)C)C(=O)NCC(=O)N[C@@H](CCCCN)C(=O)N[C@@H](CCCN=C(N)N)C(=O)N[C@@H](Cc1ccc(O)cc1)C(=O)N[C@@H](CCCCN)C(=O)N[C@@H](CCC(N)=O)C(=O)N[C@@H](CCCN=C(N)N)C(=O)N[C@H](C(=O)N[C@@H](CCCCN)C(=O)N[C@@H](CC(N)=O)C(=O)N[C@@H](CCCCN)C(N)=O)C(C)C)C(C)C)C(C)C)[C@@H](C)O` (stereo partly drawn) [[D-Phe2]PACAP-38] (HELM PEPTIDE1{H.[dF].D.G.[CCC(C)[C@H](N[*:1])C(=O)[*:2]].F.T.D.S.Y.S.R.Y.R.K.Q.M.A.V.K.K.Y.L.A.A.V.L.G.K.R.Y.K.Q.R.V.K.N.K.[am]}$$$$V2.0) belongs 5 nM and 40 nM.
